Measurements taken from PubChem BioAssay AID1963836 (Molecular Pharmacology Branch, DTP, NCI, 2024).

Test system: 857933-349-R-J2-PDC complex spheroid viability
Test: Anticancer human tumor 857933-349-R-J2-PDC patient-derived colon adenocarcinoma cell line growth inhibition [POLQ]
Settings: for IC50: curve of first compound; for viability, T/C: stronger effect = lower value
Procedure, shortened: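 Complex spheroid viability model combining PDC tumour cells with endothelial (HUVEC) and MSC stromal cells. Novobiocin, ART-558 or RP6685 were tested singly and in combination with standard and investigational anticancer drugs. Each was titrated in half-log steps from near clinical Cmax, or from 10 microM where Cmax was unknown.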

[1] = second compound 0.0316 µM, first compound 0.0316 µM
[2] = second compound 0.0316 µM, first compound 0.1 µM
[3] = second compound 0.0316 µM, first compound 0.316 µM
[4] = second compound 0.0316 µM, first compound 1 µM
[5] = second compound 0.0316 µM, first compound 3.16 µM
[6] = second compound 0.0316 µM, first compound 10 µM
[7] = second compound 0.1 µM, first compound 0.0316 µM
[8] = second compound 0.1 µM, first compound 0.1 µM
[9] = second compound 0.1 µM, first compound 0.316 µM
[10] = second compound 0.1 µM, first compound 1 µM
[11] = second compound 0.1 µM, first compound 3.16 µM
[12] = second compound 0.1 µM, first compound 10 µM
[13] = second compound 0.316 µM, first compound 0.0316 µM
[14] = second compound 0.316 µM, first compound 0.1 µM
[15] = second compound 0.316 µM, first compound 0.316 µM
[16] = second compound 0.316 µM, first compound 1 µM
[17] = second compound 0.316 µM, first compound 3.16 µM
[18] = second compound 0.316 µM, first compound 10 µM
[19] = second compound 1 µM, first compound 0.0316 µM
[20] = second compound 1 µM, first compound 0.1 µM
[21] = second compound 1 µM, first compound 0.316 µM
[22] = second compound 1 µM, first compound 1 µM
[23] = second compound 1 µM, first compound 3.16 µM
[24] = second compound 1 µM, first compound 10 µM
[25] = second compound 3.16 µM, first compound 0.0316 µM
[26] = second compound 3.16 µM, first compound 0.1 µM
[27] = second compound 3.16 µM, first compound 0.316 µM
[28] = second compound 3.16 µM, first compound 1 µM
[29] = second compound 3.16 µM, first compound 3.16 µM
[30] = second compound 3.16 µM, first compound 10 µM
[31] = second compound 10 µM, first compound 0.0316 µM
[32] = second compound 10 µM, first compound 0.1 µM
[33] = second compound 10 µM, first compound 0.316 µM
[34] = second compound 10 µM, first compound 1 µM
[35] = second compound 10 µM, first compound 3.16 µM
[36] = second compound 10 µM, first compound 10 µM
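Note: spheroids exposed to compounds for seven days before readout.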

**Q.** How did the IC50 (second compound 0.0316 µM) turn out when `CC(C)n1c(=O)n(C)c2cnc3cc(F)c(-c4ccc(OCCCN5CCCCC5)nc4)cc3c21` + Nc1ccc(C#CCN(C(=O)Cc2ncc(C(F)(F)F)cc2C(F)(F)F)c2ccc(F)cc2)nn1 was run?
**A.** Its IC50 is over 10 µM.

**Q.** And the IC50 (second compound 0.1 µM)?
**A.** Its IC50 is over 10 µM.

**Q.** And the IC50 (second compound 0.316 µM)?
**A.** The IC50 was over 10 µM.

**Q.** What about the IC50 (second compound 1 µM) of the same molecule?
**A.** The IC50 was over 10 µM.

**Q.** And the IC50 (second compound 3.16 µM)?
**A.** The IC50 was over 10 µM.

**Q.** And the IC50 (second compound 10 µM)?
**A.** Its IC50 is over 10 µM.

**Q.** What about the viability, T/C [1] of the same molecule?
**A.** The viability, T/C was 88.3%.

**Q.** And the viability, T/C [2]?
**A.** The viability, T/C was 89%.

**Q.** What about the viability, T/C [3] of the same molecule?
**A.** Its viability, T/C is 103%.

**Q.** What about the viability, T/C [4] of the same molecule?
**A.** The viability, T/C was 106%.

**Q.** And the viability, T/C [5]?
**A.** The viability, T/C was 93.7%.

**Q.** And the viability, T/C [6]?
**A.** The viability, T/C was 98.8%.

**Q.** What about the viability, T/C [7] of the same molecule?
**A.** Its viability, T/C is 99.5%.

**Q.** What about the viability, T/C [8] of the same molecule?
**A.** Its viability, T/C is 109%.

**Q.** And the viability, T/C [9]?
**A.** The viability, T/C was 111%.

**Q.** What about the viability, T/C [10] of the same molecule?
**A.** The viability, T/C was 116%.

**Q.** And the viability, T/C [11]?
**A.** The viability, T/C was 118%.

**Q.** What about the viability, T/C [12] of the same molecule?
**A.** Its viability, T/C is 100%.

**Q.** And the viability, T/C [13]?
**A.** The viability, T/C was 108%.

**Q.** And the viability, T/C [14]?
**A.** Its viability, T/C is 106%.

**Q.** And the viability, T/C [15]?
**A.** Its viability, T/C is 103%.

**Q.** What about the viability, T/C [16] of the same molecule?
**A.** Its viability, T/C is 98.7%.

**Q.** And the viability, T/C [17]?
**A.** Its viability, T/C is 105%.

**Q.** And the viability, T/C [18]?
**A.** The viability, T/C was 98%.

**Q.** And the viability, T/C [19]?
**A.** Its viability, T/C is 107%.

**Q.** And the viability, T/C [20]?
**A.** Its viability, T/C is 95.9%.

**Q.** What about the viability, T/C [21] of the same molecule?
**A.** Its viability, T/C is 107%.

**Q.** What about the viability, T/C [22] of the same molecule?
**A.** The viability, T/C was 114%.

**Q.** What about the viability, T/C [23] of the same molecule?
**A.** Its viability, T/C is 95.2%.

**Q.** What about the viability, T/C [24] of the same molecule?
**A.** Its viability, T/C is 84.7%.

**Q.** And the viability, T/C [25]?
**A.** Its viability, T/C is 91.7%.

**Q.** What about the viability, T/C [26] of the same molecule?
**A.** The viability, T/C was 99.9%.

**Q.** What about the viability, T/C [27] of the same molecule?
**A.** The viability, T/C was 103%.

**Q.** And the viability, T/C [28]?
**A.** Its viability, T/C is 115%.

**Q.** And the viability, T/C [29]?
**A.** The viability, T/C was 111%.

**Q.** And the viability, T/C [30]?
**A.** Its viability, T/C is 91.5%.

**Q.** What about the viability, T/C [31] of the same molecule?
**A.** Its viability, T/C is 86.4%.

**Q.** What about the viability, T/C [32] of the same molecule?
**A.** The viability, T/C was 102%.

**Q.** What about the viability, T/C [33] of the same molecule?
**A.** Its viability, T/C is 114%.

**Q.** What about the viability, T/C [34] of the same molecule?
**A.** Its viability, T/C is 89.3%.

**Q.** What about the viability, T/C [35] of the same molecule?
**A.** The viability, T/C was 98.1%.

**Q.** What about the viability, T/C [36] of the same molecule?
**A.** Its viability, T/C is 92.6%.

**Q.** How did the IC50 (second compound 0.0316 µM) turn out when `CC1COCCN1c1cc(C2(S(C)(=N)=O)CC2)nc(-c2ccnc3[nH]ccc23)n1` (centres undefined) + Nc1ccc(C#CCN(C(=O)Cc2ncc(C(F)(F)F)cc2C(F)(F)F)c2ccc(F)cc2)nn1 was run?
**A.** The IC50 was 6.27 µM.

**Q.** What about the IC50 (second compound 0.1 µM) of the same molecule?
**A.** The IC50 was 7.41 µM.

**Q.** What about the IC50 (second compound 0.316 µM) of the same molecule?
**A.** The IC50 was 6.97 µM.

**Q.** What about the IC50 (second compound 1 µM) of the same molecule?
**A.** Its IC50 is 6.44 µM.

**Q.** And the IC50 (second compound 3.16 µM)?
**A.** Its IC50 is 6.95 µM.

**Q.** What about the IC50 (second compound 10 µM) of the same molecule?
**A.** The IC50 was over 10 µM.

**Q.** What about the viability, T/C [1] of the same molecule?
**A.** The viability, T/C was 85.9%.

**Q.** What about the viability, T/C [2] of the same molecule?
**A.** Its viability, T/C is 110%.

**Q.** And the viability, T/C [3]?
**A.** Its viability, T/C is 107%.

**Q.** And the viability, T/C [4]?
**A.** The viability, T/C was 81.7%.

**Q.** What about the viability, T/C [5] of the same molecule?
**A.** Its viability, T/C is 60.8%.

**Q.** What about the viability, T/C [6] of the same molecule?
**A.** Its viability, T/C is 43.2%.

**Q.** What about the viability, T/C [7] of the same molecule?
**A.** The viability, T/C was 95.3%.

**Q.** And the viability, T/C [8]?
**A.** The viability, T/C was 104%.

**Q.** And the viability, T/C [9]?
**A.** Its viability, T/C is 88.8%.

**Q.** And the viability, T/C [10]?
**A.** Its viability, T/C is 79%.

**Q.** And the viability, T/C [11]?
**A.** Its viability, T/C is 63.4%.

**Q.** And the viability, T/C [12]?
**A.** Its viability, T/C is 45.3%.

**Q.** What about the viability, T/C [13] of the same molecule?
**A.** The viability, T/C was 108%.

**Q.** What about the viability, T/C [14] of the same molecule?
**A.** The viability, T/C was 107%.

**Q.** What about the viability, T/C [15] of the same molecule?
**A.** The viability, T/C was 85.4%.

**Q.** And the viability, T/C [16]?
**A.** Its viability, T/C is 83.2%.

**Q.** What about the viability, T/C [17] of the same molecule?
**A.** The viability, T/C was 64.2%.

**Q.** And the viability, T/C [18]?
**A.** Its viability, T/C is 43.2%.

**Q.** And the viability, T/C [19]?
**A.** The viability, T/C was 100%.

**Q.** What about the viability, T/C [20] of the same molecule?
**A.** The viability, T/C was 102%.

**Q.** And the viability, T/C [21]?
**A.** The viability, T/C was 90.1%.

**Q.** What about the viability, T/C [22] of the same molecule?
**A.** Its viability, T/C is 74.6%.

**Q.** What about the viability, T/C [23] of the same molecule?
**A.** The viability, T/C was 57.6%.

**Q.** What about the viability, T/C [24] of the same molecule?
**A.** The viability, T/C was 45.4%.

**Q.** And the viability, T/C [25]?
**A.** Its viability, T/C is 96.2%.

**Q.** What about the viability, T/C [26] of the same molecule?
**A.** The viability, T/C was 88.1%.

**Q.** What about the viability, T/C [27] of the same molecule?
**A.** Its viability, T/C is 89.3%.

**Q.** And the viability, T/C [28]?
**A.** Its viability, T/C is 84.7%.

**Q.** And the viability, T/C [29]?
**A.** Its viability, T/C is 59.9%.

**Q.** And the viability, T/C [30]?
**A.** The viability, T/C was 45.4%.

**Q.** And the viability, T/C [31]?
**A.** The viability, T/C was 96.5%.

**Q.** And the viability, T/C [32]?
**A.** The viability, T/C was 91.3%.

**Q.** And the viability, T/C [33]?
**A.** The viability, T/C was 93.5%.

**Q.** What about the viability, T/C [34] of the same molecule?
**A.** The viability, T/C was 71.4%.

**Q.** What about the viability, T/C [35] of the same molecule?
**A.** The viability, T/C was 71.1%.

**Q.** And the viability, T/C [36]?
**A.** Its viability, T/C is 49.9%.
